{"source": "patent US20090226517A1", "about": "“PHARMACEUTICAL FORMULATIONS COMPRISING DULOXETINE” (priority 2008, published 2009)", "origin": "cited, not measured here", "conditions": "background statement; limited aqueous solubility"}
{"smiles": "CNCC[C@H](Oc1cccc2ccccc12)c1cccs1", "note": "[Duloxetine]", "values": [{"measurement": "BCS class", "result": "BCS class II"}]}
